Reference: PMC11612555, “Impact of camel milk lactoferrin peptides against breast cancer cells: in silico and in vitro study” (Frontiers in Pharmacology, 2024)
In brackets after ≈: the same amount, converted by molar mass. Where two headings read alike, the source gives them in different places. Ends that are not written are not given here. Peptide text beside a SMILES is read from it.

Tests used:
HDFa cells = assay: MTT assay on HDFa normal cells, 48 h; assay type: cell-based, human; settings: for IC50 Value: mean ± SD
Method: DMEM medium supplemented with 10% fetal bovine serum (FBS) and 1% penicillin-streptomycin (10,000 U/mL) (complete media) was prepared to culture MCF-7 and HDFa cells in T25 flasks at 37°C in a CO2 incubator. Once the cells had adhered and grown to 70%–90% confluence within 24–48 h, they were transferred to new flasks. 2 mL of 0.25% trypsin was added to detach the cells, which were then incubated for 5 min at 37°C. The trypsin activity was stopped by adding 2 mL of complete media. The detached cells were collected into a tube and centrifuged at 1,500 rpm for 5 min. After removing the supernatant, 3 mL of media was added to resuspend the cell pellet. 20 μL of suspended cells were mixed with 20 µL of 0.4% trypan blue for staining and cell counting. 100 μL of suspended cells in complete media, containing approximately 10^4 cells, were added to each well of a 96-well plate and incubated for 24 h to allow cell attachment. Peptides (PEP20, PEP24, PEP63, PEP66, PEP67, and PEP74) at various concentrations (200, 100, 50, 25, 12.5, 6.25 μg/mL) were then added to the media in each well. Each concentration was repeated three times. After a 48-h incubation period at 37°C, the peptide-treated medium was replaced with 100 µL of 0.5 mg/mL MTT and incubated for 4 h at 37°C in the dark. Following removal of the MTT and addition of 100 µL of DMSO, the absorbance of each well in the 96-well plate was measured at 595 nm using an ELISA reader (Bio-RAD microplate reader, Japan) ([Ali et al., 2018]; [Salim et al., 2022]).
The percentage viability was calculated by multiplying the absorbance of treated cells by 100 and dividing the absorbance of untreated cells. The viability of untreated cells is considered 100%. The each concentration of each peptide and cisplatin was repeated triplicate. The unite of cell viability and IC50 are percentage and μg/mL. The viability and IC50 of the treated cells are expressed as the mean ± standard deviation (SD). GraphPad Prism software (version 9.0, San Diego, CA, United States) was used to calculate the IC50 values of the peptides, […], and their combination.

MCF-7 cells = tested on: MCF-7 cells; parameters: % of inhibition of MCF-7: dose or concentration left out as unconfirmed; settings: for IC50 Range / IC50 Value: MCF-7, MTT; for IC50 Value: mean ± SD
Method: DMEM medium supplemented with 10% fetal bovine serum (FBS) and 1% penicillin-streptomycin (10,000 U/mL) (complete media) was prepared to culture MCF-7 and HDFa cells in T25 flasks at 37°C in a CO2 incubator. Once the cells had adhered and grown to 70%–90% confluence within 24–48 h, they were transferred to new flasks. 2 mL of 0.25% trypsin was added to detach the cells, which were then incubated for 5 min at 37°C. The trypsin activity was stopped by adding 2 mL of complete media. The detached cells were collected into a tube and centrifuged at 1,500 rpm for 5 min. After removing the supernatant, 3 mL of media was added to resuspend the cell pellet. 20 μL of suspended cells were mixed with 20 µL of 0.4% trypan blue for staining and cell counting. 100 μL of suspended cells in complete media, containing approximately 10^4 cells, were added to each well of a 96-well plate and incubated for 24 h to allow cell attachment. […] Each concentration was repeated three times. After a 48-h incubation period at 37°C, the peptide-treated medium was replaced with 100 µL of 0.5 mg/mL MTT and incubated for 4 h at 37°C in the dark. Following removal of the MTT and addition of 100 µL of DMSO, the absorbance of each well in the 96-well plate was measured at 595 nm using an ELISA reader (Bio-RAD microplate reader, Japan) ([Ali et al., 2018]; [Salim et al., 2022]).
The percentage viability was calculated by multiplying the absorbance of treated cells by 100 and dividing the absorbance of untreated cells. The viability of untreated cells is considered 100%. The each concentration of each peptide and cisplatin was repeated triplicate. The unite of cell viability and IC50 are percentage and μg/mL. The viability and IC50 of the treated cells are expressed as the mean ± standard deviation (SD). GraphPad Prism software (version 9.0, San Diego, CA, United States) was used to calculate the IC50 values of the peptides, mitotane, and their combination.

[1] = IC50 of HDFa related to IC50 of MCF-7

Compound | IC50 Range (HDFa cells) [µg/mL] | SI (selectivity index) (MCF-7 cells; [1]) | IC50 Range (MCF-7 cells; 48 h) [µg/mL] | IC50 Value (MCF-7 cells; 48 h) [µg/mL] | also measured
N.N.[Cl][Pt][Cl] [Cisplatin, reference compound] | 5.650 to 7.856 | 1.565 | 3.581 to 5.055 | 4.255 ± 0.738 | IC50 Value (HDFa cells): 6.663 ± 1.10 µg/mL; IC50 Value (HDFa cells; listed as cisplatin): 6.66 µg/mL; IC50 Value (MCF-7 cells; 48 h, listed as cisplatin): 4.25 µg/mL
CSCC[C@H](NC(=O)[C@H](CC(C)C)NC(=O)[C@H](Cc1ccccc1)NC(=O)[C@H](C)NC(=O)[C@H](CS)NC(=O)[C@H](C)NC(=O)[C@H](CCC(=O)O)NC(=O)[C@H](CC(C)C)NC(=O)[C@H](CC(C)C)NC(=O)[C@@H]1CCCN1C(=O)[C@H](CO)NC(=O)[C@@H](NC(=O)[C@H](CO)NC(=O)[C@@H](N)CS)[C@@H](C)O)C(=O)N[C@@H](CCCNC(=N)N)C(=O)O [PEP66, CSTSPLLEACAFLMR] (H-CSTSPLLEACAFLMR-OH; N-terminus and C-terminus assumed) | 137.2 to 206.9 | 3.19 | 46.73 to 59.71 | 52.82 ± 6.49 (≈ 32.2 µM) | % of inhibition of MCF-7 (MCF-7 cells; concentration (Figure 6)): 76.90%; percentage of MCF7 inhibition (MCF-7 cells; dose of 200 μg/mL): 77%
LFFPALLSLGALGLCLAASK [PEP67] |  |  |  |  | SI (selectivity index) (MCF-7 cells): 0.6
PWNHIKRYF [PEP24, PWNHIKRYF] |  |  |  |  | IC50 (MCF-7 cells; 48 h): > 200 µg/mL
